Reference: ChEMBL document CHEMBL6114997, “New curcumin derivative induces ferroptosis in MCF-7 cells through activating SLC7A11/GPX4 axis” (Bioorg Med Chem, 2025)
The source made the active and inactive calls. The calls are words filed in the database; no cut-off is given here.

Legend:
HT-29 = experiment: Antiproliferative activity against human HT-29 cells assessed as inhibition of cell growth by MTT assay; assay type: functional, cell-based
HeLa = experiment: Antiproliferative activity against human HeLa cells assessed as inhibition of cell growth by MTT assay; assay type: functional, cell-based
HepG2 = experiment: Antiproliferative activity against human HepG2 cells assessed as inhibition of cell growth by MTT assay; assay type: functional, cell-based
A549 = experiment: Antiproliferative activity against human A549 cells assessed as inhibition of cell growth by MTT assay; assay type: functional, cell-based
MCF7 [1] = experiment: Antiproliferative activity against human MCF7 cells assessed as inhibition of cell growth by MTT assay; assay type: functional, cell-based
[2] = Antioxidant activity assessed as DPPH radical scavenging activity incubated for 30 mins in dark by absorbance based analysis; assay type: functional
MCF7 [3] = experiment: Induction of ferroptosis in human MCF7 cells assessed as increase in MDA level at 1.5 micromol/L measured after 24 hrs by absorbance based analysis (reference value: 0.42 micromol/L); assay type: functional; conditions: dose 1.5 µmol/L
MCF7 [4] = experiment: Induction of ferroptosis in human MCF7 cells assessed as decrease in GPX4 to beta-actin ratio at 1.5 to 3.0 micromol/L incubated for 24 hrs by Western blot analysis; assay type: functional, cell-based; conditions: dose 1.5-3 µmol/L
MCF7 [5] = experiment: Induction of intracellular ROS level in human MCF7 cells at 3.0 uM incubated for 24 hrs by DCFH-DA staining based fluorescence microscopic analysis (reference value: 4.66%); assay type: functional
[6] = Potency index, ratio of cisplatin IC50 to test compound IC50 for antiproliferative activity against human HepG2 cells assessed as inhibition of cell growth by MTT assay; assay type: functional
MCF7 [7] = experiment: Induction of ferroptosis in human MCF7 cells assessed as decrease in SLC7A11 to GAPDH ratio at 1.5 to 3.0 micromol/L incubated for 24 hrs by Western blot analysis; assay type: functional, cell-based; conditions: dose 1.5-3 µmol/L
MCF7 [8] = experiment: Induction of ferroptosis in human MCF7 cells assessed as increase in MDA level at 3.0 micromol/L measured after 24 hrs by absorbance based analysis (reference value: 0.42 micromol/L); assay type: functional; conditions: dose 3 µmol/L
MCF7 [9] = experiment: Induction of ferroptosis in human MCF7 cells assessed as increase in intracellular ferrous ion level by measuring increase in fluorescence at 1.5 to 3.0 micromol/L incubated for 24 hrs by ferroOrange probe based fluorescence microscopic analysis; assay type: functional, cell-based; conditions: dose 1.5-3 µmol/L
[10] = Potency index, ratio of cisplatin IC50 to test compound IC50 for antiproliferative activity against human A549 cells assessed as inhibition of cell growth by MTT assay; assay type: functional
MCF7 [11] = experiment: Induction of ferroptosis in human MCF7 cells assessed as decrease in GPX4 activity at 1.5 to 3.0 micromol/L by absorbance based analysis (reference value: 5.90 mU/mg); assay type: functional; conditions: dose 1.5-3 µmol/L
MCF7 [12] = experiment: Induction of intracellular ROS level in human MCF7 cells at 1.5 uM incubated for 24 hrs by DCFH-DA staining based fluorescence microscopic analysis (reference value: 4.66%); assay type: functional
MCF7 [13] = experiment: Induction of intracellular ROS level in human MCF7 cells incubated for 24 hrs by DCFH-DA staining based fluorescence microscopic analysis; assay type: functional, cell-based; conditions: dose 1.5-3 µM
[14] = Potency index, ratio of cisplatin IC50 to test compound IC50 for antiproliferative activity against human HT-29 cells assessed as inhibition of cell growth by MTT assay; assay type: functional
[15] = Potency index, ratio of cisplatin IC50 to test compound IC50 for antiproliferative activity against human HeLa cells assessed as inhibition of cell growth by MTT assay; assay type: functional
MCF7 [16] = experiment: Induction of ferroptosis in human MCF7 cells assessed as change in GPX4 expression incubated for 24 hrs by Western blot analysis; assay type: functional, cell-based; conditions: dose 1.5-3 µmol/L
[17] = Potency index, ratio of cisplatin IC50 to test compound IC50 for antiproliferative activity against human MCF7 cells assessed as inhibition of cell growth by MTT assay; assay type: functional

| IC50 (HT-29) [µM] | IC50 (HeLa) [µM] | IC50 (HepG2) [µM] | IC50 (A549) [µM] | IC50 (MCF7 [1]) [µM] | Structure (SMILES) | other results |
| --- | --- | --- | --- | --- | --- | --- |
| > 50 | > 50 | > 50 | > 50 | > 50 | COc1cc(/C=C/c2cc(/C=C/c3ccc(OCCO[N+](=O)[O-])c(OC)c3)n(-c3ccccc3)n2)ccc1OCCO[N+](=O)[O-] |  |
| > 50 | > 50 | > 50 | > 50 | > 50 | COc1cc(/C=C/c2cc(/C=C/c3ccc(OCCCO[N+](=O)[O-])c(OC)c3)n(-c3ccc(C(F)(F)F)cc3)n2)ccc1OCCCO[N+](=O)[O-] |  |
| > 50 | > 50 | > 50 | > 50 | > 50 | COc1cc(/C=C/c2cc(/C=C/c3ccc(OCCO[N+](=O)[O-])c(OC)c3)n(-c3ccccc3F)n2)ccc1OCCO[N+](=O)[O-] |  |
| 1.81 | 20.5 | 1.44 | 1.27 | 2.4 | COc1cc(/C=C/C(=O)C(=Cc2cccs2)C(=O)/C=C/c2ccc(OCCCO[N+](=O)[O-])c(OC)c2)ccc1OCCCO[N+](=O)[O-] | Activity [2]: Weak_effect; Compound Showed Weak Effect Compared With Vitamin C |
| 4.6 | 16.2 | 2.12 | 2.91 | 11.3 | COc1cc(/C=C/C(=O)C(=Cc2ccco2)C(=O)/C=C/c2ccc(OCCCCO[N+](=O)[O-])c(OC)c2)ccc1OCCCCO[N+](=O)[O-] | Activity [2]: Weak_effect; Compound Showed Weak Effect Compared With Vitamin C |
| 10.2 | > 50 | 2.22 | 7.24 | 18.4 | COc1cc(/C=C/C(=O)C(=Cc2cccs2)C(=O)/C=C/c2ccc(OCCCCO[N+](=O)[O-])c(OC)c2)ccc1OCCCCO[N+](=O)[O-] | Activity [2]: Weak_effect; Compound Showed Weak Effect Compared With Vitamin C |
| 1.28 | 14.2 | 1.61 | 0.8 | 2.32 | COc1cc(/C=C/C(=O)C(=Cc2ccco2)C(=O)/C=C/c2ccc(OCCO[N+](=O)[O-])c(OC)c2)ccc1OCCO[N+](=O)[O-] | Activity [2]: Weak_effect; Compound Showed Weak Effect Compared With Vitamin C |
| > 50 | > 50 | > 50 | > 50 | > 50 | COc1cc(/C=C/c2cc(/C=C/c3ccc(OCCCO[N+](=O)[O-])c(OC)c3)n(-c3ccccn3)n2)ccc1OCCCO[N+](=O)[O-] |  |
| > 50 | > 50 | > 50 | > 50 | > 50 | COc1cc(/C=C/c2cc(/C=C/c3ccc(OCCCCO[N+](=O)[O-])c(OC)c3)n(-c3ccccc3F)n2)ccc1OCCCCO[N+](=O)[O-] |  |
| > 50 | > 50 | > 50 | > 50 | > 50 | COc1cc(/C=C/c2cc(/C=C/c3ccc(OCC4CC4)c(OC)c3)n(-c3ccc(C(=O)OCCCCO[N+](=O)[O-])cc3)n2)ccc1OCC1CC1 |  |
| > 50 | > 50 | > 50 | > 50 | > 50 | COc1cc(/C=C/c2cc(/C=C/c3ccc(OCCCCO[N+](=O)[O-])c(OC)c3)n(-c3ccc(C(F)(F)F)cc3)n2)ccc1OCCCCO[N+](=O)[O-] |  |
| 1.45 | 6.78 | 1.21 | 1.03 | 1.39 | COc1cc(/C=C/C(=O)C(=Cc2cccs2)C(=O)/C=C/c2ccc(OCCO[N+](=O)[O-])c(OC)c2)ccc1OCCO[N+](=O)[O-] | Activity (MCF7 [3]): 0.84 µmol/L; Activity (MCF7 [4]): Active; Activity (MCF7 [5]): 60.7%; Ratio IC50 [6]: >=2; Activity (MCF7 [7]): Active; Activity (MCF7 [8]): 1.25 µmol/L; Activity (MCF7 [9]): Active; Ratio IC50 [10]: >=2; Activity (MCF7 [11]): 3.52 mU/mg; Activity (MCF7 [12]): 12.5%; Activity (MCF7 [13]): Dose-dependent-effect; Ratio IC50 [14]: >=2; Ratio IC50 [15]: >=2; Activity (MCF7 [16]): Dose-dependent-effect; Ratio IC50 [17]: >=2 |
| > 50 | > 50 | > 50 | > 50 | > 50 | COc1cc(/C=C/c2cc(/C=C/c3ccc(OCCCO[N+](=O)[O-])c(OC)c3)n(-c3ccccc3F)n2)ccc1OCCCO[N+](=O)[O-] |  |
| > 50 | > 50 | > 50 | > 50 | > 50 | COc1cc(/C=C/c2cc(/C=C/c3ccc(OCCCCO[N+](=O)[O-])c(OC)c3)n(-c3ccccn3)n2)ccc1OCCCCO[N+](=O)[O-] |  |
| > 50 | > 50 | > 50 | > 50 | > 50 | COc1cc(/C=C/c2cc(/C=C/c3ccc(OCCCO[N+](=O)[O-])c(OC)c3)n(Cc3ccccc3)n2)ccc1OCCCO[N+](=O)[O-] |  |
| > 50 | > 50 | > 50 | > 50 | > 50 | COc1cc(/C=C/c2cc(/C=C/c3ccc(OCCCO[N+](=O)[O-])c(OC)c3)n(-c3ccccc3)n2)ccc1OCCCO[N+](=O)[O-] |  |
| > 50 | > 50 | > 50 | > 50 | > 50 | COc1cc(/C=C/c2cc(/C=C/c3ccc(OCCO[N+](=O)[O-])c(OC)c3)n(-c3ccc(C(F)(F)F)cc3)n2)ccc1OCCO[N+](=O)[O-] |  |
| > 50 | > 50 | > 50 | > 50 | > 50 | COc1cc(/C=C/c2cc(/C=C/c3ccc(OCCCCO[N+](=O)[O-])c(OC)c3)n(Cc3ccccc3)n2)ccc1OCCCCO[N+](=O)[O-] |  |
| > 50 | > 50 | > 50 | > 50 | > 50 | COc1cc(/C=C/c2cc(/C=C/c3ccc(OCC4CC4)c(OC)c3)n(-c3ccc(C(=O)OCCCO[N+](=O)[O-])cc3)n2)ccc1OCC1CC1 |  |
| > 50 | > 50 | > 50 | > 50 | > 50 | COc1cc(/C=C/c2cc(/C=C/c3ccc(OCCCCO[N+](=O)[O-])c(OC)c3)n(-c3ccccc3)n2)ccc1OCCCCO[N+](=O)[O-] |  |
| > 50 | > 50 | > 50 | > 50 | > 50 | COc1cc(/C=C/c2cc(/C=C/c3ccc(OCCCCO[N+](=O)[O-])c(OC)c3)n(-c3ccc(F)cc3)n2)ccc1OCCCCO[N+](=O)[O-] |  |
| 22.9 | > 50 | > 50 | 24.6 | 19.9 | COc1cc(/C=C/C(=O)CC(=O)/C=C/c2ccc(O)c(OC)c2)ccc1O [CURCUMIN] |  |
| > 50 | > 50 | > 50 | > 50 | > 50 | COc1cc(/C=C/c2cc(/C=C/c3ccc(OCCCO[N+](=O)[O-])c(OC)c3)n(-c3ccc(F)cc3)n2)ccc1OCCCO[N+](=O)[O-] |  |
| > 50 | > 50 | > 50 | > 50 | > 50 | COc1cc(/C=C/c2cc(/C=C/c3ccc(OCCO[N+](=O)[O-])c(OC)c3)n(Cc3ccccc3)n2)ccc1OCCO[N+](=O)[O-] |  |
| 2.5 | 7.6 | 1.74 | 2.06 | 3.66 | COc1cc(/C=C/C(=O)C(=Cc2ccco2)C(=O)/C=C/c2ccc(OCCCO[N+](=O)[O-])c(OC)c2)ccc1OCCCO[N+](=O)[O-] | Activity [2]: Weak_effect; Compound Showed Weak Effect Compared With Vitamin C |
| > 50 | > 50 | > 50 | > 50 | > 50 | COc1cc(/C=C/c2cc(/C=C/c3ccc(OCCO[N+](=O)[O-])c(OC)c3)n(-c3ccc(F)cc3)n2)ccc1OCCO[N+](=O)[O-] |  |
